# Data from ChEMBL document CHEMBL1144793, “Synthesis and characterization of 1,3-dihydro-benzo[b][1,4]diazepin-2-one derivatives: Part 3. New potent non-competitive metabotropic glutamate receptor 2/3 antagonists” (Bioorg Med Chem Lett, 2008).
# Active and inactive are the calls of the source. The rule behind the calls is not given here.
# What was measured:
# [1] = target: T1, Metabotropic glutamate receptor 2 (Rattus norvegicus, UniProt P31421); assay: Displacement of [3H]LY354740 from rat mGluR2
# [2] = Plasma concentration in rat at 10 mg/kg, po after 1.5 hrs; assay type: ADME, organism-based; design: dose 10 mg/kg, route oral
# [3] = Ratio of drug level in brain to plasma at 10 mg/kg, po after 1.5 hrs; assay type: ADME, organism-based; design: dose 10 mg/kg, route oral; conditions: rat
# [4] = target: T1, Metabotropic glutamate receptor 2; assay: Antagonist activity at rat mGluR2 expressed in CHO cells assessed as inhibition of glutamta-induced GIRK current; assay type: functional, cell-based
# [5] = target: T1, Metabotropic glutamate receptor 2; assay: Antagonist activity at rat mGluR2 assessed as blockade of (1S,3R)-ACPD-induced inhibition of forskolin-stimulated cAMP production; assay type: functional
# [6] = target: Metabotropic glutamate receptor 3 (Rattus norvegicus, UniProt P31422); assay: Antagonist activity at rat mGluR3 expressed in CHO cells assessed as inhibition of glutamate-induced GIRK current; assay type: functional, cell-based
# Mus musculus = assay: Spontaneous locomotor activity in po dosed C57BL/6J mouse assessed as reversal of LY-354740-induced hypoactivity; assay type: functional
# [7] = Drug level in rat brain at 10 mg/kg, po after 1.5 hrs; assay type: ADME, organism-based; design: dose 10 mg/kg, route oral; conditions: read-out: Drug uptake
# [8] = Clearance in rat microsomes; assay type: ADME, Liver, Microsome
# [9] = Binding affinity to ionotropic glutamate receptor
# [10] = Ratio of drug level in cerebrospinal fluid to plasma at 10 mg/kg, po after 1.5 hrs; assay type: ADME, organism-based, CSF/Plasma; design: dose 10 mg/kg, route oral; conditions: rat
# [11] = Binding affinity to GABAA receptor
# Cytochrome P450 3A4 = Cytochrome P450 3A4 (Homo sapiens, UniProt P08684); assay: Inhibition of CYP3A4; assay type: ADME
# Sequence of Cytochrome P450 3A4 (P08684 whole entry): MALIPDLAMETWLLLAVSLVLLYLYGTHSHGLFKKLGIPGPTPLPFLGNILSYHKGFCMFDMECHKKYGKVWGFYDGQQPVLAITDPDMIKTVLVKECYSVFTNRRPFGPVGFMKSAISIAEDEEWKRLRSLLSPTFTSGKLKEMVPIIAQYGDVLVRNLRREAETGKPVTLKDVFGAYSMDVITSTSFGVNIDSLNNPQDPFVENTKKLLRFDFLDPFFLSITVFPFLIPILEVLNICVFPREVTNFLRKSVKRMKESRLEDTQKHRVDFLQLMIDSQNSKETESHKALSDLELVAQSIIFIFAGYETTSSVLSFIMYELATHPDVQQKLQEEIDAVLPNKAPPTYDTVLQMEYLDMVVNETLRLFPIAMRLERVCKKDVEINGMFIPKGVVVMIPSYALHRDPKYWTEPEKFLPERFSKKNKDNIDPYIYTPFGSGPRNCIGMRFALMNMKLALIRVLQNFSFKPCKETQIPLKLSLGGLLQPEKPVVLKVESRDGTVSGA
# Sequence of Metabotropic glutamate receptor 3 (P31422 whole entry): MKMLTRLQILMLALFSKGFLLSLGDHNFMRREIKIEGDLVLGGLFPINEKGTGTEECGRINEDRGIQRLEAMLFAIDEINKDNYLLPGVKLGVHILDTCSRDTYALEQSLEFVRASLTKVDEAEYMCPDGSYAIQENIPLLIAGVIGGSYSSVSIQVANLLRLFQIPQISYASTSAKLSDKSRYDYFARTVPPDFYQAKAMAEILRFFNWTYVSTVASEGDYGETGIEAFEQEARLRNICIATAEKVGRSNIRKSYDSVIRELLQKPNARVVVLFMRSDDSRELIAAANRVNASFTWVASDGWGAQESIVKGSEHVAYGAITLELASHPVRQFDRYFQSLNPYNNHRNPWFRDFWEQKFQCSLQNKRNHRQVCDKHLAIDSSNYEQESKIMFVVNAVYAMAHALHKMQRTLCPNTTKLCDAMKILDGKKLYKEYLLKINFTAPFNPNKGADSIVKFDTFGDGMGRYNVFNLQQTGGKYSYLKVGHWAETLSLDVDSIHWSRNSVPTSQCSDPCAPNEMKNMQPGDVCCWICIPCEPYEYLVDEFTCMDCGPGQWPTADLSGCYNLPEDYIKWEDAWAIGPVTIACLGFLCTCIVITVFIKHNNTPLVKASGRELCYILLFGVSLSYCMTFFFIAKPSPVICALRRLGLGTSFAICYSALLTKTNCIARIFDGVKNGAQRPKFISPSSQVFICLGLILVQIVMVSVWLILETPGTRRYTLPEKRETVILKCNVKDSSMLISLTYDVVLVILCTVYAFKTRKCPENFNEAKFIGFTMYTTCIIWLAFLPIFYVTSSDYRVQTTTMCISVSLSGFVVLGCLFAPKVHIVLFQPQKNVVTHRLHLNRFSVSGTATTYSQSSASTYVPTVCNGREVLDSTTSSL
# T1 sequence (P31421 whole entry): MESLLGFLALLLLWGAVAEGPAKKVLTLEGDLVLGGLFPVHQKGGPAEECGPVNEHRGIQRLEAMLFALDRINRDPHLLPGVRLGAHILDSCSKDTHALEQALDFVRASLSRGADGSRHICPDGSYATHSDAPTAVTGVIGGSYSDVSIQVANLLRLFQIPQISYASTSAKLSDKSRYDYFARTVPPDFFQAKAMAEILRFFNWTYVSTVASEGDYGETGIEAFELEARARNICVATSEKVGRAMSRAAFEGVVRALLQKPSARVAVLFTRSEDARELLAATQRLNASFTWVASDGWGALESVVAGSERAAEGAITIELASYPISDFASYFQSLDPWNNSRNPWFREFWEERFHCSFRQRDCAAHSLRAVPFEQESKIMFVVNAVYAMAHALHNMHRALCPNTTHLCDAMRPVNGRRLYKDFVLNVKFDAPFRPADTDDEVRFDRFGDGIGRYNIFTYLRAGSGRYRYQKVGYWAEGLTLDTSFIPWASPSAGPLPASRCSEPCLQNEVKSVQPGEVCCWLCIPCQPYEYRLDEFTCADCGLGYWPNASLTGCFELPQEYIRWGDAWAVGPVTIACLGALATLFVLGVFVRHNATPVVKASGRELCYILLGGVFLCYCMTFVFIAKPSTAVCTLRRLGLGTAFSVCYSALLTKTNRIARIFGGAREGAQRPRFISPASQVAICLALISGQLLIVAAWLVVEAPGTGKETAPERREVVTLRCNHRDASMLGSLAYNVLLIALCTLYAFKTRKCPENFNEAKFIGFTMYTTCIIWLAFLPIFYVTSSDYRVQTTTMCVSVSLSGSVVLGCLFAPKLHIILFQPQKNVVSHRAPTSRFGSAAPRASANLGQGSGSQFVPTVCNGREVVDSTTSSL
Structure (SMILES),IC50 [1],IC50 [5],further results
O=C1CC(c2cccc(-n3ccnc3)c2)=Nc2ccc(-c3ccccc3F)cc2N1,12 nM,27 nM,concentration at 1.5 h [2]: 2660 ng/mL; Kp at 1.5 h [3]: 0.5; IC50 [4]: 11 nM; IC50 [6]: 33 nM; ED50 (Mus musculus): 12.5 mg/kg; concentration at 1.5 h [7]: 1340 ng/mL
O=C1CC(c2cccc(-n3ccnc3)c2)=Nc2ccc(-c3ccc(F)cc3)cc2N1,17 nM,24 nM,IC50 [4]: 299 nM; IC50 [6]: 17 nM
CCOc1cc2c(cc1C(F)(F)F)NC(=O)CC(c1cccc(-n3ccnn3)c1)=N2,7 nM,34 nM,
O=C1CC(c2cccc(-n3ccnc3)c2)=Nc2ccc(Br)cc2N1,72 nM,,
O=C1CC(c2cccc(-n3ccnn3)c2)=Nc2ccc(C(F)F)cc2N1,608 nM,,
O=C1CC(c2cccc(-n3ccnn3)c2)=Nc2ccc(OCC(F)(F)F)cc2N1,70 nM,,
O=C1CC(c2cccc(-n3ccnc3)c2)=Nc2ccc(-c3cc(F)ccc3F)cc2N1,7 nM,17 nM,
O=C1CC(c2cccc(-n3ccnc3)c2)=Nc2ccc(-c3cccc(F)c3)cc2N1,25 nM,,
O=C1CC(c2cccc(-n3ccnc3)c2)=Nc2cc(O)c(-c3ccccc3F)cc2N1,22 nM,,IC50 [4]: 35 nM; CLint scaled [8]: 100 mL/min/kg; IC50 [6]: 122 nM
Cc1cc2c(cc1C(F)(F)F)NC(=O)CC(c1cccc(-n3ccnc3)c1)=N2,12 nM,19 nM,
Cc1cc2c(cc1C(F)(F)F)NC(=O)CC(c1cccc(-n3ccnn3)c1)=N2,9 nM,39 nM,
O=C1CC(c2cccc(-n3ccnc3)c2)=Nc2cc(Cl)c(C(F)(F)F)cc2N1,17 nM,15 nM,
O=C1CC(c2cccc(-n3ccnn3)c2)=Nc2ccc(Br)cc2N1,130 nM,,
CCc1cc2c(cc1C(F)(F)F)NC(=O)CC(c1cccc(-n3ccnc3)c1)=N2,4 nM,10 nM,
O=C1CC(c2cccc(-n3ccnc3)c2)=Nc2cc(O)c(C#Cc3ccc(F)cc3)cc2N1,,,IC50 [4]: 24 nM
O=C1CC(c2cccc(-n3ccnn3)c2)=Nc2ccc(C(F)(F)F)cc2N1,92 nM,,
O=C1CC(c2cccc(-n3ccnc3)c2)=Nc2ccc(-c3ccccc3)cc2N1,39 nM,47 nM,
O=C1CC(c2cccc(-n3ccnn3)c2)=Nc2ccc(-c3ccccc3F)cc2N1,16 nM,37 nM,Activity [9]: inactive; concentration at 1.5 h [2]: 1420 ng/mL; Kp at 1.5 h [3]: 0.9; IC50 [4]: 22 nM; IC50 [6]: 42 nM; Kp at 1.5 h [10]: 0.5; ED50 (Mus musculus): 3.3 mg/kg; Activity [11]: inactive; IC50 (Cytochrome P450 3A4): 4.3 µM; concentration at 1.5 h [7]: 1060 ng/mL

# Second part, led by results:
IC50 [1],IC50 [5],Structure (SMILES),further results
60 nM,,O=C1CC(c2cccc(-n3ccnn3)c2)=Nc2ccc(Cl)cc2N1,
11 nM,14 nM,CC(C)CN(C)c1cc2c(cc1C(F)(F)F)NC(=O)CC(c1cccc(-n3ccnn3)c1)=N2,
466 nM,,CC(C)c1ccc2c(c1)NC(=O)CC(c1cccc(-n3ccnn3)c1)=N2,
27 nM,116 nM,O=C1CC(c2cccc(-n3ccnn3)c2)=Nc2cc(Cl)c(C(F)(F)F)cc2N1,
31 nM,36 nM,O=C1CC(c2cccc(-n3ccnn3)c2)=Nc2ccc(-c3ccc(F)cc3)cc2N1,
17 nM,18 nM,O=C1CC(c2cccc(-n3ccnn3)c2)=Nc2ccc(-c3cc(F)ccc3F)cc2N1,
19 nM,73 nM,CC(C)CNc1cc2c(cc1C(F)(F)F)NC(=O)CC(c1cccc(-n3ccnc3)c1)=N2,
43 nM,,O=C1CC(c2cccc(-n3ccnc3)c2)=Nc2ccc(C(F)(F)F)cc2N1,
38 nM,184 nM,CN(C)c1cc2c(cc1C(F)(F)F)NC(=O)CC(c1cccc(-n3ccnn3)c1)=N2,
42 nM,268 nM,CC(C)CNc1cc2c(cc1C(F)(F)F)NC(=O)CC(c1cccc(-n3ccnn3)c1)=N2,
210 nM,,O=C1CC(c2cccc(-n3ccnc3)c2)=Nc2ccc(C3CC3)cc2N1,
9 nM,52 nM,CN(C)c1cc2c(cc1C(F)(F)F)NC(=O)CC(c1cccc(-n3ccnc3)c1)=N2,
29 nM,74 nM,COc1cc2c(cc1C(F)(F)F)NC(=O)CC(c1cccc(-n3ccnn3)c1)=N2,
